From patent publication US20250032457A1, “METHODS OF TREATING ANDROGENIC ALOPECIA AND/OR SKIN CONDITIONS” (priority 2020, published 2025) come the findings set out here.

The subject of this experiment is scalp of a human subject (hairline recession, hair loss and thinning). In words: Topical administration to the scalp of a human subject with hairline recession, hair loss and thinning. To be noted: 2% miconazole nitrate formulation, twice per day, observed after 3 months, one human subject, FIG. 2 vs FIG. 1.

Description: Hairline recession, hair thinning, and hair loss were observed prior to administration.

In the case of `Clc1ccc(COC(Cn2ccnc2)c2ccc(Cl)cc2Cl)c(Cl)c1` (centres unmarked) [miconazole], the “hair growth on the scalp” value is “promotion of hair growth elsewhere on the scalp”. Besides, the hairline recession result (topical on scalp) is “reversal of hairline recession”.
